This note sets out measurements from US20240262826A1, “WILD TYPE KIT INHIBITORS” (Blueprint Medicines Corporation, priority 2022, published 2024).

pIC50: −log10 of the molar value.

The term pIC50 denotes the IC50 on a negative log10 scale, so that one unit is a factor of ten. A high value points to a small IC50.

The target of one series is wild type c-kit (Homo sapiens (Human), UniProt P10721). In words: PathScan phospho c-kit (Tyr719) sandwich ELISA in SCF-stimulated M-07e cells (pKIT assay). In kind it is cell-based. The conditions noted are these: ELISA assay (values not marked *). The procedure, abridged:
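Tyr719-phosphorylated c-kit was measured by colorimetric (TMB) sandwich ELISA in lysates of M-07e cells. Cells were starved 4 h without serum or GM-CSF, dosed 60 min at 37 °C with compound (8 points, duplicate, 0.25% DMSO), and stimulated 10 min with human SCF (500 ng/mL as added). IC50 values came from 4-parameter logistic regression.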
Background: An ELISA detects its analyte on a solid surface through an enzyme-linked reagent.

Series [1] addresses human P-glycoprotein (P-gp, MDR1) (Homo sapiens (Human), UniProt P08183). As to the kind of experiment: MDCK-MDR1 cell monolayer drug transport assay (P-gp efflux ratio). In kind it is in vitro ADME. The conditions noted are these: pH 7.4, MDCK-MDR1 cells; for efflux ratio at 2 h, 1 µM: 1 uM concentration of compound, read-out: Pgp Efflux Ratio, 1 uM. The essentials: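 P-gp substrate potential tested in MDCK-MDR1 monolayers on Transwell supports, cultured 4-8 days; monolayers with TEER <42 ohms·cm2 discarded. Transport run in HBSS (10 mM HEPES, pH 7.4) at 37° C with compound working solution at 1 μM.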

human P-glycoprotein (P-gp, MDR1), sequence (P08183 whole entry): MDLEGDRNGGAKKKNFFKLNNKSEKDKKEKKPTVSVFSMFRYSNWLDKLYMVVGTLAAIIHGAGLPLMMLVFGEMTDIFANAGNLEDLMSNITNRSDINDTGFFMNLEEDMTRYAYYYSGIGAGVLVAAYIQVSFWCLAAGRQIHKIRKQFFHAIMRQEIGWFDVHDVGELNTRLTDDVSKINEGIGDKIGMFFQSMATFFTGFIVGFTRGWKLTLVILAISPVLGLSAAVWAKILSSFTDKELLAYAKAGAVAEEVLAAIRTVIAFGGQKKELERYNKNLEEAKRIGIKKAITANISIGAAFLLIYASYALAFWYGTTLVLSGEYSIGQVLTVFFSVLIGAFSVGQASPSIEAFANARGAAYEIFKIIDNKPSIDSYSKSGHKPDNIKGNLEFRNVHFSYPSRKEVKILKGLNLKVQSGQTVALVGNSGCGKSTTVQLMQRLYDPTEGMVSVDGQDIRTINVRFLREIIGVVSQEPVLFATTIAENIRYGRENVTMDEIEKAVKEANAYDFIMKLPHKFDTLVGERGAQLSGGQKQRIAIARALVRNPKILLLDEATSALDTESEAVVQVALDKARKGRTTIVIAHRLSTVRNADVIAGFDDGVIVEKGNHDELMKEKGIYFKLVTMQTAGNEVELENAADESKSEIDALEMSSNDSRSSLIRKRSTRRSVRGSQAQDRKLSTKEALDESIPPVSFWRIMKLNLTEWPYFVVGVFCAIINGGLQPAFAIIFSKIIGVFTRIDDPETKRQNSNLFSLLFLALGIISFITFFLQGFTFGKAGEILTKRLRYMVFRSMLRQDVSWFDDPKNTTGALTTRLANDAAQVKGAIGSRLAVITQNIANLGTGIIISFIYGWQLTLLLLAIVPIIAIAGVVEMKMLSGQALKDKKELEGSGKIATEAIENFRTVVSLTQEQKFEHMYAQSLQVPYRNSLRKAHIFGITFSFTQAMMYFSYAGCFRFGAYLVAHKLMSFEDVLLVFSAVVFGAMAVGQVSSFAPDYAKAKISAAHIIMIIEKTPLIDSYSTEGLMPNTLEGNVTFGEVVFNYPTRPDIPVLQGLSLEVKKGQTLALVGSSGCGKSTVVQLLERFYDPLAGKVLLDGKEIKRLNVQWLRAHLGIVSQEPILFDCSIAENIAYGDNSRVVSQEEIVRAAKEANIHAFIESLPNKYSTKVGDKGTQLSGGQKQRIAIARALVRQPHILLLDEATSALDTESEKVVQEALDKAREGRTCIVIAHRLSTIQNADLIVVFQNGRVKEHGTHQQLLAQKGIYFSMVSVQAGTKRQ
wild type c-kit, sequence (P10721 26-976): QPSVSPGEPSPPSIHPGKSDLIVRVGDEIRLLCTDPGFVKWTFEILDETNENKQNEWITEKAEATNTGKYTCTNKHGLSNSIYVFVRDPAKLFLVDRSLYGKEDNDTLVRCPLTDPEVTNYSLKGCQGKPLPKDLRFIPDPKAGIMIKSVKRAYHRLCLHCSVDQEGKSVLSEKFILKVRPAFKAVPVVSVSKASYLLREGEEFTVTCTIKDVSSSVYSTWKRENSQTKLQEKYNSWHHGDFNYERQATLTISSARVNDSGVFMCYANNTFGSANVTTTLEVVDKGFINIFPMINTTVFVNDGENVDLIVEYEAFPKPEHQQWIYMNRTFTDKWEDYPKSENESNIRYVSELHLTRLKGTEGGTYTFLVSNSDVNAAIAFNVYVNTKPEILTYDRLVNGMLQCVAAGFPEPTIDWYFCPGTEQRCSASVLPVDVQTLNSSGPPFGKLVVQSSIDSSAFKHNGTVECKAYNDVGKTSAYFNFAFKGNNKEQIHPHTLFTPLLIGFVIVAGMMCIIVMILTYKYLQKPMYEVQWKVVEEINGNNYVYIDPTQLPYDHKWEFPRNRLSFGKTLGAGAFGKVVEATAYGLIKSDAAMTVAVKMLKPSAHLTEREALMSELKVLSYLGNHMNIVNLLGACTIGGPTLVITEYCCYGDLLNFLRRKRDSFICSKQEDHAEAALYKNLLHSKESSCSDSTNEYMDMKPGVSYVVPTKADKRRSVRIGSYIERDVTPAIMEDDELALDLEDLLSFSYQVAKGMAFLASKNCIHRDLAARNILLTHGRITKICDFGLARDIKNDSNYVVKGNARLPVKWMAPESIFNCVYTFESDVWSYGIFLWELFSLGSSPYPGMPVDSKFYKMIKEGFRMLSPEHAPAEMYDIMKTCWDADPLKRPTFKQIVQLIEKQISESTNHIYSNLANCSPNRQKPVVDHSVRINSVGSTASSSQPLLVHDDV

Compound `COC(=O)N1CC(c2cnn(-c3ccc(C)c(NC(=O)c4cnn5ccc(NC6COC6)cc45)c3)n2)C1` [Example 141, methyl 3-(2-(4-methyl-3-(5-(oxetan-3-ylamino)pyrazolo[1,5-a]pyridine-3-carboxamido)phenyl)-2H-1,2,3-triazol-4-yl)azetidine-1-carboxylate] gave a negative logarithm of the IC50 (pIC50) on wild type c-kit of 8.12. Moreover, the efflux ratio at 2 h, 1 µM in series [1] was 36.4.
For `Cc1cc(F)c(-c2nnn([C@H]3C[C@@H](C(F)(F)F)C3)n2)cc1NC(=O)c1cnn2ccc(N3CCC(C)(O)CC3)cc12` [Example 109, N-(4-fluoro-2-methyl-5-(2-((1s,3s)-3-(trifluoromethyl)cyclobutyl)-2H-tetrazol-5-yl)phenyl)-5-(4-hydroxy-4-methylpiperidin-1-yl)pyrazolo[1,5-a]pyridine-3-carboxamide], in that order: 8.31 and 15.4.
For `CCOC(=O)N1CC(n2nnc(-c3ccc(C)c(NC(=O)c4cnn5ccc(NCCOC)cc45)c3)n2)C1` [Example 149, ethyl 3-(5-(3-(5-((2-methoxyethyl)amino)pyrazolo[1,5-a]pyridine-3-carboxamido)-4-methylphenyl)-2H-tetrazol-2-yl)azetidine-1-carboxylate], in that order: 7.41 and 30.1.
The corresponding values for `Cc1ccc(-c2nnn([C@H]3C[C@@H](C(F)(F)F)C3)n2)cc1NC(=O)c1cnn2ccc(NCCO)cc12` [Example 120, 5-((2-hydroxyethyl)amino)-N-(2-methyl-5-(2-((1s,3s)-3-(trifluoromethyl)cyclobutyl)-2H-tetrazol-5-yl)phenyl)pyrazolo[1,5-a]pyridine-3-carboxamide or 5-((2-hydroxyethyl)amino)-N-(2-methyl-5-(2-((1r,3r)-3-(trifluoromethyl)cyclobutyl)-2H-tetrazol-5-yl)phenyl)pyrazolo[1,5-a]pyridine-3-carboxamide] are 8.39 and 35.9.
Turning to `COC[C@@H](O)Cn1nc(C)c(-c2ccn3ncc(C(=O)Nc4cc(-c5nnn(C)n5)ccc4C)c3c2)c1C` [Example 245, (S)-5-(1-(2-hydroxy-3-methoxypropyl)-3,5-dimethyl-1H-pyrazol-4-yl)-N-(2-methyl-5-(2-methyl-2H-tetrazol-5-yl)phenyl)pyrazolo[1,5-a]pyridine-3-carboxamide], the negative-log IC50 (pIC50) on wild type c-kit is 9.10. Moreover, in series [1], the efflux ratio at 2 h, 1 µM was found to be 2.3.
With `Cc1cc(Cl)c(-c2nnn(C3CC(F)(F)C3)n2)cc1NC(=O)c1cnn2ccc(N3CCOCC3)cc12` [Example 168, N-(4-chloro-5-(2-(3,3-difluorocyclobutyl)-2H-tetrazol-5-yl)-2-methylphenyl)-5-morpholinopyrazolo[1,5-a]pyridine-3-carboxamide], at wild type c-kit, the pIC50 is 8.04. Besides, the efflux ratio at 2 h, 1 µM in series [1] was determined as 3.2.
Take `Cc1cc(Cl)c(NC(=O)c2cnn3ccc(-c4cnn(CC(C)(C)O)c4)cc23)cc1-c1nnn(C2CC2)n1` [Example 227, N-(2-chloro-5-(2-cyclopropyl-2H-tetrazol-5-yl)-4-methylphenyl)-5-(1-(2-hydroxy-2-methylpropyl)-1H-pyrazol-4-yl)pyrazolo[1,5-a]pyridine-3-carboxamide]: the pIC50 on wild type c-kit is 8.72. Moreover, in series [1] (0.1 uM concentration of compound (denoted by **), read-out: Pgp Efflux Ratio), the efflux ratio at 2 h, 0.1 µM is 5.
In the case of `COCCNc1ccn2ncc(C(=O)Nc3cc(-c4nnn([C@H]5C[C@@H](C(F)(F)F)C5)n4)ccc3C)c2c1` [Example 119, 5-((2-methoxyethyl)amino)-N-(2-methyl-5-(2-((1s,3s)-3-(trifluoromethyl)cyclobutyl)-2H-tetrazol-5-yl)phenyl)pyrazolo[1,5-a]pyridine-3-carboxamide or 5-((2-methoxyethyl)amino)-N-(2-methyl-5-(2-((1r,3r)-3-(trifluoromethyl)cyclobutyl)-2H-tetrazol-5-yl)phenyl)pyrazolo[1,5-a]pyridine-3-carboxamide], the pIC50 at wild type c-kit was 8.64. Moreover, the efflux ratio at 2 h, 1 µM in series [1] came out at 3.9.
For `COC[C@@H](O)Cn1ncc(-c2ccn3ncc(C(=O)Nc4cc(-c5nnn(C6CC6)n5)ccc4Cl)c3c2)c1C` [Example 248, (S)-N-(2-chloro-5-(2-cyclopropyl-2H-tetrazol-5-yl)phenyl)-5-(1-(2-hydroxy-3-methoxypropyl)-5-methyl-1H-pyrazol-4-yl)pyrazolo[1,5-a]pyridine-3-carboxamide], in that order: 9.22 and 3.5.
For `Cc1ccc(-c2nnn(C3CC(F)(F)C3)n2)cc1NC(=O)c1cnn2ccc(N3CCC(C)(O)CC3)cc12` [Example 61, N-(5-(2-(3,3-difluorocyclobutyl)-2H-tetrazol-5-yl)-2-methylphenyl)-5-(4-hydroxy-4-methylpiperidin-1-yl)pyrazolo[1,5-a]pyridine-3-carboxamide], in that order: 8.49 and 16.4.
The corresponding values for `Cc1ccc(-c2nnn(C)n2)cc1NC(=O)c1cnn2ccc(-c3cnn(CCO)c3)cc12` [Example 47, 5-(1-(2-hydroxyethyl)-1H-pyrazol-4-yl)-N-(2-methyl-5-(2-methyl-2H-tetrazol-5-yl)phenyl)pyrazolo[1,5-a]pyridine-3-carboxamide] are 8.01 and 16.
`Cc1ccc(-c2nnn(C(C)C)n2)cc1NC(=O)c1cnn2ccc(-c3cnn(CCO)c3)cc12` [Example 49, 5-(1-(2-hydroxyethyl)-1H-pyrazol-4-yl)-N-(5-(2-isopropyl-2H-tetrazol-5-yl)-2-methylphenyl)pyrazolo[1,5-a]pyridine-3-carboxamide] gave a pIC50 on wild type c-kit of 8.89. Further, in series [1], the efflux ratio at 2 h, 1 µM was found to be 14.
The corresponding values for `COCCNc1ccc2c(C(=O)Nc3cc(-c4nnn(C5CN(C(=O)OC)C5)n4)ccc3Cl)cnn2c1` [Example 157, methyl 3-(5-(4-chloro-3-(6-((2-methoxyethyl)amino)pyrazolo[1,5-a]pyridine-3-carboxamido)phenyl)-2H-tetrazol-2-yl)azetidine-1-carboxylate] are 8.19 and 5.9.
The corresponding values for `Cc1ccc(-c2nnn(C3CC(F)(F)C3)n2)cc1NC(=O)c1cnn2ccc(N3CC[C@H](O)C3)cc12` [Example 62, (S)-N-(5-(2-(3,3-difluorocyclobutyl)-2H-tetrazol-5-yl)-2-methylphenyl)-5-(3-hydroxypyrrolidin-1-yl)pyrazolo[1,5-a]pyridine-3-carboxamide] are 8.21 and 11.
The corresponding values for `Cc1cnn(-c2ccc(C)c(NC(=O)c3cnn4ccc(-c5cnn(CCO)c5)cc34)c2)n1` [Example 57, 5-(1-(2-hydroxyethyl)-1H-pyrazol-4-yl)-N-(2-methyl-5-(4-methyl-2H-1,2,3-triazol-2-yl)phenyl)pyrazolo[1,5-a]pyridine-3-carboxamide] are 8.40 and 3.4.
`COC(=O)N1CC(c2cnn(-c3ccc(C)c(NC(=O)c4cnn5ccc(N6CCOCC6)cc45)c3)n2)C1` [Example 80, methyl 3-(2-(4-methyl-3-(5-morpholinopyrazolo[1,5-a]pyridine-3-carboxamido)phenyl)-2H-1,2,3-triazol-4-yl)azetidine-1-carboxylate] had a pIC50 on wild type c-kit of 8.04. Moreover, the efflux ratio at 2 h, 1 µM in series [1] turned out to be 4.
For `COCCOCCNc1ccn2ncc(C(=O)Nc3cc(-c4nnn(C5CN(C(=O)OC)C5)n4)ccc3C)c2c1` [Example 146, methyl 3-(5-(3-(5-((2-(2-methoxyethoxy)ethyl)amino)pyrazolo[1,5-a]pyridine-3-carboxamido)-4-methylphenyl)-2H-tetrazol-2-yl)azetidine-1-carboxylate], in that order: 7.05 and 15.4.
The corresponding values for `Cc1ccc(-c2nnn(C3CN(S(C)(=O)=O)C3)n2)cc1NC(=O)c1cnn2ccc(COCC(F)F)cc12` [Example 154, 5-((2,2-difluoroethoxy)methyl)-N-(2-methyl-5-(2-(1-(methylsulfonyl)azetidin-3-yl)-2H-tetrazol-5-yl)phenyl)pyrazolo[1,5-a]pyridine-3-carboxamide] are 7.73 and 37.6.
For `COC(=O)N1CC(n2nnc(-c3ccc(C)c(NC(=O)c4cnn5ccc(NCC(C)(F)F)cc45)c3)n2)C1` [Example 92, methyl 3-(5-(3-(5-((2,2-difluoropropyl)amino)pyrazolo[1,5-a]pyridine-3-carboxamido)-4-methylphenyl)-2H-tetrazol-2-yl)azetidine-1-carboxylate], in that order: 7.66 and 11.4.
For `Cc1ccc(-c2nnn(C3CC(F)(F)C3)n2)cc1NC(=O)c1cnn2ccc(NCCO)cc12` [Example 101, N-(5-(2-(3,3-difluorocyclobutyl)-2H-tetrazol-5-yl)-2-methylphenyl)-5-((2-hydroxyethyl)amino)pyrazolo[1,5-a]pyridine-3-carboxamide], the negative-log IC50 (pIC50) against wild type c-kit is 8.28. The efflux ratio at 2 h, 1 µM in series [1] worked out at 16.
